Here are results for four molecules from patent publication US10028999B2, “PAR-1 based therapeutic conjugates and uses thereof” (TEL HASHOMER MEDICAL RESEARCH INFRASTRUCTURE AND SERVICES …, priority 2014, dated 2018).

The structures appear in SMILES notation. Peptide text beside a SMILES is read from it. * marks the point of attachment. Tos = Cc1ccc(S(=O)(=O)*)cc1; CH2Cl = ClC* Some results are limits rather than exact numbers.

Data set [1] concerns EAN rats (experimental autoimmune neuritis). Put plainly: Electrophysiological tests in EAN rats treated with thrombin inhibitors. It counts as in vivo, rat. As for the experimental part:
(§1) Electrophysiological tests of the sciatic nerves were performed on day 32 PI (post-immunization/induction) in EAN model (FIGS. 3A-C) and 8 weeks after STZ induction (FIG. 4A-C). Rats were anesthetized with Phenobarbital (IP, 24 mg/kg). Two pairs of monopolar needle electrodes were used to stimulate the tail nerves. Stimulating cathodes were inserted to a depth of 4-5 mm at the base of the tail and 4 cm distally. An anode at each location was inserted into the skin (4-5 mm depth) 1 cm proximal to the cathode. A ground electrode was placed between the distal stimulating electrode and the active recording electrode. Electromyography (EMG) recordings of responses of the tail muscles to proximal and distal stimuli, made by a pair of ring electrodes coated with electrode jelly and placed 1 cm distally to the distal stimulating electrode, were collected. The tail skin was wiped with alcohol prior to placing the electrodes. […] Both proximal and distal latencies were measured using time intervals from the stimulus artifact to the first deflection from baseline. To calculate the motor nerve conduction velocity (MNCV), the distance between stimulating cathodes was divided by the latency difference. Amplitudes of the compound muscle action potential (CMAP) from both proximal and distal stimulations were measured from the negative to the positive peaks. The reduction of the proximal CMAP compared with that of the distal CMAP was calculated by the equation: [(distal CMAP-proximal CMAP)/distalCMAP×100] and was defined as the R ratio. Temperature differences were minimized by conducting the study as soon as the anesthesia had taken effect and by warming the tail with a heating lamp.
(§2) FIGS. 3 and 4 each include 3 graphs summarizing the results from electrophysiological tests of treated rats, as follows: distal latency (3A, 4A) referring to the time, in milliseconds, between distal stimulation to recording; conduction velocity (3B, 4B) referring to the distance over time, in meters/seconds; and amplitude (3C, 4C) referring to the size of the response as measured in millivolts.

Data set [2] concerns STZ-induced diabetic rats. Put plainly: Electrophysiological tests in STZ-induced diabetic rats treated with thrombin inhibitors. It counts as in vivo, rat. The settings on record: STZ rats. As for the experimental part: as §1, §2
For data set [3], the system named is C6 glioma cells. Put plainly: Thrombin-like activity in C6 glioma cell line. Type of data set: cell-based. The settings on record: four hours after treatment.
The test system of data set [4] is CNS-1 glioma cells. As for the experimental part:
The thrombin-like activity of CNS-1 cells was initially measured in control cells and in cells treated with (i) the short peptide conjugate (tosyl-DPR-CK, corresponding to a conjugate that includes the peptide termed 3AA) or (ii) the long conjugate (tosyl-NATLDPR-CK, corresponding to a conjugate that includes the peptide termed 7AA (SEQ ID No. 4)) at high ([…]) and low (100 nM) concentrations (FIG. 16).

Data set [5] relates to CNS-1 glioma cells. Kind of data set: Proliferation (XTT) of CNS-1 glioma cells. Type of data set: cell-based, rat. The conditions noted are these: CNS-1 cells; for inhibition of cell proliferation: XTT, 48 hours. As for the experimental part:
(§3) Several peptide moieties (Table 1) according to the present invention were synthesized. Proliferation was measured, by means of XTT, in C6 and CNS-1 glioma cell-lines (FIGS. 8A and 8B, respectively). In C6 cells, proliferation was measured before (black bar) and after cells were treated with the PAR-1 antagonist SCH79797 at various doses ranging from 10 nM to 10 μM (grey bars; FIG. 8A).
In another set of experiments, CNS-1 glioma cell-line was treated with increased doses of TLCK (125 nM to 14 mM), for 48 hours (FIG. 9; grey bars). Proliferation was measured by means of XTT in comparison to non-treated cells (control; black bar).
Initially, CNS-1 glioma cells were treated with increased concentrations of two peptide conjugates: a short conjugate of the formula tosyl-DPR-CK (comprising 3 amino acids, 3AA) or a long conjugate of the formula tosyl-NATLDPR-CK (comprising 7 amino acids, 7AA; SEQ ID NO: 4) in concentrations of 100 pM, 1 nM and 10 nM, for 48 hours (FIG. 10). FIG. 10 provides the results of an XTT assay used for assessing cell proliferation.
The effect of the peptide conjugate alone, or in combination with PAR-1 antagonist, SCH79797, on cell proliferation was determined in comparison to untreated cells or cells treated with PAR-1 antagonist (FIG. 13).
For orientation: Tetrazolium dyes change colour on reduction, which living cells bring about.

For data set [6], the system named is blood coagulation (prothrombin time). Kind of data set: Prothrombin time test. The settings on record: for PT: without conjugate 11.5; for Potency score in PT test: most potent (1) to least potent (5). Type of data set: biochemical.
The test system of the next data set is blood coagulation (aPTT). Kind of data set: Activated partial thromboplastin time test. It counts as biochemical. The settings on record: for aPTT: without conjugate 30.5; for Potency score in aPTT test: most potent (1) to least potent (5).
A further data set has as its system thrombin. Kind of data set: Thrombin time test. Type of data set: biochemical. The conditions noted are these: for TT: without conjugate 13.4; for Potency score in TT test: most potent (1) to least potent (5).
The next data set deals with Factor Xa. Kind of data set: Factor Xa activity test. Type of data set: biochemical. The conditions noted are these: for Fxa: without conjugate 0.11; for Potency score in Factor Xa activity test: most potent (1) to least potent (5).
A further data set deals with Protein C (Homo sapiens, UniProt P04070). Put plainly: Protein C activity test. Type of data set: biochemical. The settings on record: for aPC: without conjugate 109; for Potency score in Protein C activity test: most potent (1) to least potent (5).
Protein C, sequence (P04070 212-461 limits assumed): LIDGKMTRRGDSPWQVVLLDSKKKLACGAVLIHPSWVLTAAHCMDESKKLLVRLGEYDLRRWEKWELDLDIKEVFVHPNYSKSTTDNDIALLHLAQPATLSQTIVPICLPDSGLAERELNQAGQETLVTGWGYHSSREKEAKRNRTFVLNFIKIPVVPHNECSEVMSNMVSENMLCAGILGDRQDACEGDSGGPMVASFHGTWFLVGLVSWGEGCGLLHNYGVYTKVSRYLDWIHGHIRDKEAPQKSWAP
Protein C, sequence (P04070 43-197 partner limits assumed): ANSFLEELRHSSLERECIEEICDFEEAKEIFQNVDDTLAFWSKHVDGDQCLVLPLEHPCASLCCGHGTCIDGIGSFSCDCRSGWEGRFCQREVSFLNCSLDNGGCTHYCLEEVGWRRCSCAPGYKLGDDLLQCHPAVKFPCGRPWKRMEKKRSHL
A further data set in a line: in vivo. The settings on record: ip, 2 micromolar, in 100 ul.
In data set [7] the test system is STZ-induced diabetic BALB/c mice. Put plainly: Sciatic nerve conduction velocity in STZ diabetic neuropathy mice. It counts as in vivo. The settings on record: daily 100 microliter of 10 nM, p=0.016, listed as T5AACK. As for the experimental part:
The conduction velocity of sciatic nerves derived from an animal model of diabetes (streptozotocine (STZ)-induced diabetes; FIG. 20) was measured in mice treated daily with sham (STZ), or with the active drug TLDPR (peptide 5AA; SEQ ID NO: 2) nested between N alpha-tosyl and chloromethyl ketone, namely […] (termed hereinafter T5AACK) injected in 100 microliter of 10 nM, 100 nM and 1 micromolar.
Conduction velocities in the sciatic nerves of the mice were assessed by standard electrophysiology nerve conduction methods by a blind assessor. The nerve conduction studies were carried out one month after the induction of diabetes. A group of normal mice without diabetes served as controls. All STZ treated mice developed severe diabetes.
Streptozotocyn (STZ) was dissolved in citrate buffer pH 4.5 and a single dose of STZ was administered IP (140 mg/kg) to 12 weeks BALB/c mice. […] Mice developed diabetic neuropathy developed within 4 weeks after the induction of diabetes. […]
Conduction velocities in the sciatic nerves of the mice were assessed by standard electrophysiology nerve conduction methods by a blind assessor (FIG. 19).

In data set [8] the test system is C6 glioma cells. Kind of data set: Proliferation (XTT) of C6 glioma cells. It counts as cell-based. The conditions noted are these: 10 nM to 10 μM. As for the experimental part:
as §3

Procedure for in vivo: The concentrations of the peptide conjugates in the plasma of animals treated therewith was evaluated by a unique method that was based on the ability of the peptide conjugates to inhibit thrombin activity. […] The essay initiated by obtaining blood samples from animals which received the peptide conjugates (100 microliter containing 2 micromolar, i.p.). The blood samples, after being maintained in citrate buffered sample tubes, were subjected to centrifugation for plasma separation. Samples were then filtered through a membrane with a 10 kD molecular weight cutoff which excluded all blood coagulation factors (by addition of calcium to neutralize the anticoagulation effect of the citrate buffer). Coagulation factor-free plasma samples were then applied to the thrombin activity assay.
The resulting thrombin activities in each plasma sample either diluted (×10) or as is were given in arbitrary units (FIGS. 18-18D, diagonal shading and dotted bars, respectively). However, the actual concentration were deduced by comparing the activities to calibrated activities generated with known concentrations of the conjugate peptides. The calibration data included the following thrombin activities: activity in a sample of thrombin in the absence of plasma and conjugates (black bars, FIGS. 18A-18D); and activity in four samples of thrombin and known concentrations of the peptide conjugates (10 nM, 100 nM, 1 micromolar and 10 micromolar; bars 2nd to 5th from right in FIGS. 18A-18D).

As for `N=C(N)c1ccc(CC(NC(=O)CNS(=O)(=O)c2ccc3ccccc3c2)C(=O)N2CCCCC2)cc1` (racemic) [NAPAP, Na-(2-naphthyl-sulphonyl-glycyl)-DL-p-amidinophenylalanyl-piperidine], the conduction velocity in [1] (daily treatment for 2 weeks, TLCK 4.4 mg/kg, NAPAP 120 μM/kg, untreated EAN 23.6±1.2) was 36.05±3.57 m/sec; in data set [2] (daily treatment for 2 weeks, TLCK 4.4 mg/kg, NAPAP 120 μM/kg, untreated STZ 28.5±2.8), 40.1±2.7 m/sec. Further, the proximal amplitude in data set [1] (untreated EAN 0.76±0.33, non-significant) was found to be 0.83±0.4 millivolts; in [2] (untreated STZ 0.48±0.13, insignificant), 1.68±0.64 millivolts. Besides, the latency in data set [1] (untreated EAN 1.43±0.023, control 0.54±0.03) was found to be 1.32 ± 0.33 ms; in data set [2] (untreated STZ 1.93±0.139, control 1.29±0.057), 1.676 ± 0.132 ms. In addition, in the data set with C6 glioma cells [3], the thrombin-like activity result is “inhibited”.
Broadly, the IC50 is the concentration that gives 50% inhibition. Read a high IC50 as weaker potency in that assay. For the molecule `Cc1ccc(S(=O)(=O)N[C@@H](CC(=O)O)C(=O)N2CCC[C@H]2C(=O)N[C@@H](CCCNC(=N)N)C(=O)CCl)cc1` [3AA, tosyl-DPR-CK] (Tos-Asp-Pro-Arg-CH2Cl), the IC50 with CNS-1 glioma cells [4] was found to be 0.007 nM. Moreover, the entries for the “inhibition of cell proliferation” value in the data set with CNS-1 glioma cells [5] (1 nM) and with CNS-1 glioma cells [5] (10 nM) were “significant inhibition of cell proliferation” and “higher inhibition”, respectively. Besides, the results for the PT in [6] (10 nM), in data set [6] (1 μM) and in data set [6] (100 μM) were 11.5 s, 12.3 s and “FAILED”, respectively. Besides, the “Potency score in PT test” value in data set [6] (100 μM) stood at 1. Further, the aPTT in the data set on blood coagulation (aPTT) (10 nM) amounted to 30 s; with blood coagulation (aPTT) (1 μM), 38.1 s; in the data set on blood coagulation (aPTT) (100 μM), 150 s. In addition, the “Potency score in aPTT test” value in the data set on blood coagulation (aPTT) (100 μM) is recorded as 1. Also, the figures for the TT with thrombin (10 nM), in the data set with thrombin (1 μM) and in the data set on thrombin (100 μM) were 14.1 s, over 80 s and over 80 s, respectively. Further, the “Potency score in TT test” value in the data set with thrombin (1 μM) came to 1. The Fxa in the data set on Factor Xa (1 μM) is listed as 0.21; with Factor Xa (100 μM), “FAILED”. Moreover, the “Potency score in Factor Xa activity test” value with Factor Xa (100 μM) stood at 1. The aPC on Protein C (1 μM) was 107; on Protein C (100 μM), “FAILED”. Further, on Protein C (100 μM), the “Potency score in Protein C activity test” value is recorded as 1. Moreover, in the data set on blood coagulation, the “effect on coagulation, overall” value is given as “significantly more deleterious effects on coagulation”. In addition, the level at time molar in the data set “in vivo” is about 1000 nM.
Take `Cc1ccc(S(=O)(=O)N[C@H](C(=O)N[C@@H](CC(C)C)C(=O)N[C@@H](CC(=O)O)C(=O)N2CCC[C@H]2C(=O)N[C@@H](CCCNC(=N)N)C(=O)CCl)[C@@H](C)O)cc1` [5AA, tosyl-TLDPR-CK] (Tos-TLDPR-CH2Cl): in the data set with CNS-1 glioma cells [4], the IC50 came to 0.7 nM. Moreover, the figures for the PT in data set [6] (10 nM), in [6] (1 μM) and in data set [6] (100 μM) were 12.1 s, 11.5 s and 14.5 s, respectively. Besides, in data set [6] (100 μM), the “Potency score in PT test” value is recorded as 4. Besides, the results for the aPTT in the data set on blood coagulation (aPTT) (10 nM), with blood coagulation (aPTT) (1 μM) and in the data set on blood coagulation (aPTT) (100 μM) were 30.1 s, 30.5 s and 63.9 s, respectively. Moreover, the “Potency score in aPTT test” value in the data set with blood coagulation (aPTT) (100 μM) worked out at 4. Besides, the TT with thrombin (10 nM) was 13.8 s; in the data set on thrombin (1 μM), 17.8 s; in the data set with thrombin (100 μM), over 80 s. In addition, in the data set on thrombin (1 μM), the “Potency score in TT test” value was 4. In addition, the “Potency score in Factor Xa activity test” value in the data set with Factor Xa (100 μM) is given as 4. Further, the Fxa in the data set on Factor Xa (100 μM) turned out to be 0.13. The values for the aPC on Protein C (1 μM) and on Protein C (100 μM) were 109 and 20, respectively. In addition, the “Potency score in Protein C activity test” value at Protein C (100 μM) came to 3. Further, in data set [7], the “sciatic nerve conduction velocity relative to sham treated mice” value was “followed a similar trend”. In “in vivo”, this molecule had a level at time molar of under 10 nM.
What is called inhibition is the percentage by which the read-out fell short of the control. With `CC(C)c1ccc(Cn2ccc3c4c(N)nc(NC5CC5)nc4ccc32)cc1.Cl.Cl` [SCH79797, N3-Cyclopropyl-7-[[4-(1-methylethyl)phenyl]methyl]-7H-pyrrolo[3,2-f]quinazoline-1,3-diamine dihydrochloride, reference compound], the proliferation result in the data set on C6 glioma cells [8] was “inhibited proliferation in a dose-dependent manner”. The inhibition at 1 µM with CNS-1 glioma cells [5] (Rattus norvegicus, Glioma cell, 1 μM, alone) was determined as 25%.
